Source: US12686674B2, “Crystal form of compound represented by formula I, and preparation therefor and application thereof” (Shanghai Zhimeng Biopharma, Inc., priority 2021, dated 2026)

Key:
[1] = Key water activity research, crystal form A and hydrate crystal form E; assay type: physicochemical; conditions: room temperature
AMES experiments = assay type: cell-based
[2] = Suspension competition of anhydrous crystal forms A/G; assay type: physicochemical
Description: In order to study the stability relationship between other anhydrous crystal forms (crystal forms A/G), suspension competition experiments were conducted at room temperature and 60° C. using ACN and EtOAc as solvents.

[3] = Room temperature storage of crystal form F (XRPD); assay type: physicochemical; conditions: room temperature (18-20° C./45~75% RH), about 3 days

O=C1CO[C@H](c2cn(-c3ccc(Br)cc3)nc2-c2ccc(F)cc2)N1CCc1ccc2[nH]c(=O)[nH]c2c1
The crystal form obtained (key water activity) ([1]; Water activity(Aw) 0, Acetone/H2O 1000:0 v/v): Crystal form A
The crystal form obtained (key water activity) ([1]; Water activity(Aw) 0.2, Acetone/H2O 984:16 v/v): Crystal form A
The crystal form obtained (key water activity) ([1]; Water activity(Aw) 0.4, Acetone/H2O 948:52 v/v): Crystal form A
The crystal form obtained (key water activity) ([1]; Water activity(Aw) 0.6, Acetone/H2O 857:143 v/v): Crystal form A
The crystal form obtained (key water activity) ([1]; Water activity(Aw) 0.8, Acetone/H2O 604:396 v/v): Crystal form A
The crystal form obtained (key water activity) ([1]; Water activity(Aw) 1.0, Acetone/H2O 0:1000 v/v): Crystal form E

Nc1ccc(CCN2C(=O)COC2c2cn(-c3ccc(Br)cc3)nc2-c2ccc(F)cc2)cc1N (centres unmarked) [2-(1-(4-bromophenyl)-3-(4-fluorophenyl)-1H-pyrazole-4-yl)-3-(3,4-diaminophenethyl) oxazolidin-4-one]
AMES experiments (AMES experiments): positive

CC(=O)Nc1ccc(CCN2C(=O)COC2c2cn(-c3ccc(Br)cc3)nc2-c2ccc(F)cc2)cc1[N+](=O)[O-] (centres unmarked) [3-(4-acetylamino-3-nitrophenylethyl)-2-(3-(4-fluorophenyl)-1-(4-bromophenyl)-1H-pyrazole-4-yl) oxazolidin-4-one]
AMES experiments (AMES experiments): positive

Nc1ccc(CCN2C(=O)COC2c2cn(-c3ccc(Br)cc3)nc2-c2ccc(F)cc2)cc1[N+](=O)[O-] (centres unmarked) [3-(4-amino-3-nitrophenylethyl)-2-(1-(4-bromophenyl)-3-(4-fluorophenyl)-1H-pyrazole-4-yl) oxazolidin-4-one]
AMES experiments (AMES experiments): positive

O=C1CO[C@H](c2cn(-c3ccc(Br)cc3)nc2-c2ccc(F)cc2)N1CCc1ccc2[nH]c(=O)[nH]c2c1 [Crystal form A/G]
The crystal form obtained (suspension competition) ([2]; ACN, 60° C., test D220-PS-14-A3): Crystal form A
The crystal form obtained (suspension competition) ([2]; ACN, Room temperature(~18° C.), test D220-PS-14-A1): Crystal form A
The crystal form obtained (suspension competition) ([2]; EtOAc, 60° C., test D220-PS-14-A4): Crystal form A
The crystal form obtained (suspension competition) ([2]; EtOAc, Room temperature(~18° C.), test D220-PS-14-A2): Crystal form A

O=C1CO[C@H](c2cn(-c3ccc(Br)cc3)nc2-c2ccc(F)cc2)N1CCc1ccc2[nH]c(=O)[nH]c2c1 [Crystal form F]
crystal form after being placed at room temperature [3]: transformed into crystal form E
